Laboratory results reported in ChEMBL document CHEMBL5316291 (J Med Chem, 2023).

Key:
[1] = target: T1, Protein mono-ADP-ribosyltransferase TIPARP (Homo sapiens, UniProt Q7Z3E1); experiment: Inhibition of human recombinant N-terminal FLAG tagged PARP7 (400 to 657 end residues) incubated for 1 hr by ELISA assay
T1 sequence (Q7Z3E1 whole entry): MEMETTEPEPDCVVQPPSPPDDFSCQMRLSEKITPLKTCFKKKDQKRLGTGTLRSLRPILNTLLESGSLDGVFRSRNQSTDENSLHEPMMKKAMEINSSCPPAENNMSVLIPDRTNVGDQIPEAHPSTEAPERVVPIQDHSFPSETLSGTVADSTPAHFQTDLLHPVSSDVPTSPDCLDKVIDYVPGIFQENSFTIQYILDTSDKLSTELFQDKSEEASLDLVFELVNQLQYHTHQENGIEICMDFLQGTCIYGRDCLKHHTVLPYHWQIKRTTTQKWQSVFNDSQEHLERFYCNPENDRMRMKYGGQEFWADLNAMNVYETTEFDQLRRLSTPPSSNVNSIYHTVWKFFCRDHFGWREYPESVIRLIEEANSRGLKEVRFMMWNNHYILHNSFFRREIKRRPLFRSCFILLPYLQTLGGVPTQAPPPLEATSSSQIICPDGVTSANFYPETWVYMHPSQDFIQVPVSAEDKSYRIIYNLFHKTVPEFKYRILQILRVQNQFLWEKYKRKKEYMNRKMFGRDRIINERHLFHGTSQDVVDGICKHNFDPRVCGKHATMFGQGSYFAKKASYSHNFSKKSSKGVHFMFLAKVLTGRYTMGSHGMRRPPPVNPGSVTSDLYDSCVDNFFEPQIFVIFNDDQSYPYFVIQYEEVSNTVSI

[2] = target: T2, Protein mono-ADP-ribosyltransferase TIPARP (Homo sapiens) (UniProt Q7Z3E1); experiment: Inhibition of human recombinant N-terminal FLAG tagged PARP7 (400 to 657 end residues) at 100 nM incubated for 1 hr by ELISA assay relative to control
T2 sequence (whole entry): T1 sequence (Q7Z3E1 whole entry)

[3] = target: Poly [ADP-ribose] polymerase 1 (Homo sapiens, UniProt P09874); experiment: Inhibition of human recombinant N-terminal GST-tagged PARP1 (2 to 1014 end residues) incubated for 1 hr by ELISA assay
[4] = Tmax in ICR mouse at 1 mg/kg, iv measured upto 24 hrs by LC-MS/MS analysis; format: ADME, organism-based; details: in vivo
CT26 [5] = experiment: Antitumor activity against mouse CT26 cells implanted in BALB/c mouse assessed as increase in infiltration of CD4 positive CD8 positive T lymphocytes in tumors at 100 mg/kg, po measured after 14 days by flow cytometry (reference value: 6.67%); format: functional; details: time 14 day
[6] = Clearance in ICR mouse at 1 mg/kg, iv measured upto 24 hrs by LC-MS/MS analysis; format: ADME, organism-based; details: in vivo
[7] = Toxicity in BALB/c mouse implanted with mouse CT26 cells assessed as liver damage at 100 mg/kg, po measured for 14 days by hematoxylin and eosin staining based fluorescence microscopic analysis; format: organism-based; details: in vivo, 336 h, time 14 day
[8] = Apparent volume of distribution in ICR mouse at 10 mg/kg, po measured upto 24 hrs by LC-MS/MS analysis; format: ADME, organism-based; details: in vivo
CT26 [9] = experiment: Antitumor activity against mouse CT26 cells implanted in BALB/c mouse assessed as increase in infiltration of CD3 positive CD4 positive T lymphocytes in tumors at 100 mg/kg, po measured after 14 days by flow cytometry (reference value: 7.95%); format: functional; details: time 14 day
[10] = Apparent volume of distribution in ICR mouse at 1 mg/kg, iv measured upto 24 hrs by LC-MS/MS analysis; format: ADME, organism-based; details: in vivo, read-out: Vz
[11] = Half life in ICR mouse at 10 mg/kg, po measured upto 24 hrs by LC-MS/MS analysis; format: ADME, organism-based; details: in vivo
[12] = Oral bioavailability in ICR mouse at 10 mg/kg measured upto 24 hrs by LC-MS/MS analysis; format: ADME, organism-based; details: in vivo
[13] = AUC(0 to infinity) in ICR mouse at 10 mg/kg, po measured upto 24 hrs by LC-MS/MS analysis; format: ADME, organism-based; parameters: dose 10 mg/kg, time < 24 hrs, route po; details: in vivo
[14] = Clearance in ICR mouse at 10 mg/kg, po measured upto 24 hrs by LC-MS/MS analysis; format: ADME, organism-based; details: in vivo
[15] = AUC(0 to infinity) in ICR mouse at 1 mg/kg, iv measured upto 24 hrs by LC-MS/MS analysis; format: ADME, organism-based; parameters: time < 24 hrs, dose 1 mg/kg, route iv; details: in vivo
[16] = MRT(0 to infinity) in ICR mouse at 1 mg/kg, iv measured upto 24 hrs by LC-MS/MS analysis; format: ADME, organism-based; details: in vivo
[17] = Toxicity in BALB/c mouse implanted with mouse CT26 cells assessed as spleen damage at 100 mg/kg, po measured for 14 days by hematoxylin and eosin staining based fluorescence microscopic analysis; format: organism-based; details: in vivo, 336 h, time 14 day
[18] = Cytotoxicity against mouse AML12 cells assessed as inhibition of cell growth measured after 6 days by MTT assay; format: toxicity, cell-based
[19] = Toxicity in BALB/c mouse implanted with mouse CT26 cells assessed as kidney damage at 100 mg/kg, po measured for 14 days by hematoxylin and eosin staining based fluorescence microscopic analysis; format: organism-based; details: in vivo, 336 h, time 14 day
[20] = MRT(0 to infinity) in ICR mouse at 10 mg/kg, po measured upto 24 hrs by LC-MS/MS analysis; format: ADME, organism-based; details: in vivo
[21] = Half life in ICR mouse at 1 mg/kg, iv measured upto 24 hrs by LC-MS/MS analysis; format: ADME, organism-based; details: in vivo
CT26 [22] = experiment: Antitumor activity against mouse CT26 cells xenografted in BALB/c mouse assessed as tumor growth inhibition at 100 mg/kg, po bid measured for 14 days; format: functional; details: CT26, 336 h, time 14 day, read-out: TGI
[23] = Toxicity in BALB/c mouse implanted with mouse CT26 cells assessed as lung damage at 100 mg/kg, po measured for 14 days by hematoxylin and eosin staining based fluorescence microscopic analysis; format: organism-based; details: in vivo, 336 h, time 14 day
[24] = Initial plasma concentration in ICR mouse at 1 mg/kg, iv measured upto 24 hrs by LC-MS/MS analysis; format: ADME, organism-based
[25] = Tmax in ICR mouse at 10 mg/kg, po measured upto 24 hrs by LC-MS/MS analysis; format: ADME, organism-based; details: in vivo

Sequence of Poly [ADP-ribose] polymerase 1 (P09874 whole entry): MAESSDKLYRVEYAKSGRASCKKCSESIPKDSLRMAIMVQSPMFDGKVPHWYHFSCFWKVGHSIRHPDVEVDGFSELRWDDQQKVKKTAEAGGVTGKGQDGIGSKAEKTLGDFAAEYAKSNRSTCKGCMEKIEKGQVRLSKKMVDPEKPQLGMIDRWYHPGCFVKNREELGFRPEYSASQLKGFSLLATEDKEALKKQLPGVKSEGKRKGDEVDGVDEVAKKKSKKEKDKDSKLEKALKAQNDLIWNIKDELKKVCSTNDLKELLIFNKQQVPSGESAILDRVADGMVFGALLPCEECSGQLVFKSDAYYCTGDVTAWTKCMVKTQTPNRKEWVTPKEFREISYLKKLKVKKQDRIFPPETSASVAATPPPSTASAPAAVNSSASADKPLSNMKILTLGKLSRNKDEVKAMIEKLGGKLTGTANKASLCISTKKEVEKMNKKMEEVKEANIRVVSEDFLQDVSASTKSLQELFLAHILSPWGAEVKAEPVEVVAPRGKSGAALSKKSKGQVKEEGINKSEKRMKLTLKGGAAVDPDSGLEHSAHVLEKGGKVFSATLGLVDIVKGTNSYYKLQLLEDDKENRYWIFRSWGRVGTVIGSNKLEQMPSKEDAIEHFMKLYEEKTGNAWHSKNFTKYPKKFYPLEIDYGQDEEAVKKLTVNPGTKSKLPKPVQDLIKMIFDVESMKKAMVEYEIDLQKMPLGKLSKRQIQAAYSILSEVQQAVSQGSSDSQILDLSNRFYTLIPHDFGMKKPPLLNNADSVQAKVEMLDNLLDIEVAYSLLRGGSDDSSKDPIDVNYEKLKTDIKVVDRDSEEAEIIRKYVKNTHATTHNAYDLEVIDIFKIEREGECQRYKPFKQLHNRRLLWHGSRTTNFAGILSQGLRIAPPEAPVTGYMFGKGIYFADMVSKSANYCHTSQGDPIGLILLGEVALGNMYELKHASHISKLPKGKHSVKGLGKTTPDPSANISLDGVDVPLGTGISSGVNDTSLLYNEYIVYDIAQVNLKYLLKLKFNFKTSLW

Compound C[C@@H](CN1CC(C(=O)N2C3CC2CN(c2ncc(C(F)(F)F)cn2)C3)C1)Nc1cn[nH]c(=O)c1C(F)(F)F has an IC50 [1] of 116 nM and an inhibition [2] of 55.5%.

Compound C[C@@H](CN1CC(C(=O)NC2CN(c3ncc(C(F)(F)F)cn3)C2)C1)Nc1cn[nH]c(=O)c1C(F)(F)F has an inhibition [2] of 51%.

For C[C@@H](CN1CC(C(=O)N2CCN(c3nccc(C(F)(F)F)n3)CC2)C1)Nc1cn[nH]c(=O)c1C(F)(F)F, the inhibition [2] was 65%.

In the case of C[C@@H](CN1CC(C(=O)N2CCN(c3ncc(F)cn3)CC2)C1)Nc1cn[nH]c(=O)c1C(F)(F)F, the inhibition [2] is reported as 26%.

For C[C@@H](CN1CCC(C(=O)N2CCN(c3ncc(C(F)(F)F)cn3)CC2)CC1)Nc1cn[nH]c(=O)c1C(F)(F)F, the IC50 [3] was greater than 5000 nM and the inhibition [2] was 33.6%.

With C[C@@H](COCCC(=O)N1CCN(c2ncc(C(F)(F)F)cn2)CC1)Nc1cn[nH]c(=O)c1C(F)(F)F [ATAMPARIB] the Tmax [4] was 4.8 min, the Activity (CT26 [5]) was 19.1% and the clearance [6] was 67 mL/min/kg. For the same compound, the Activity [7] was “Non-Toxic”, the Vz [8] was 19.694 L/kg and the Activity (CT26 [9]) was 48.2%. It also gave a Vd [10] of 0.872 L/kg, a t1/2 [11] of 54 min and a bioavailability [12] of 25.7%. The AUC [13] was 656 ng·h/mL, the CL/F [14] was 259 mL/min/kg and the AUC [15] was 256 ng·h/mL. For the same compound, the MRT inf [16] was 12 min, the Activity [17] was “Non-Toxic” and the IC50 at 6 days [18] was greater than 50000 nM. The Activity [19] was “Non-Toxic”, the MRT inf [20] was 54 min and the t1/2 [21] was 9 min. The inhibition in vivo at 100 mg/kg (CT26 [22]) was 30%, the Activity [23] was “Non-Toxic” and the C0 at 24 h [24] was 1230 ng/mL. It also gave a Tmax [25] of 13.2 min.

C[C@@H](CN1CC(C(=O)N2CCN(c3ncc(Cl)cn3)CC2)C1)Nc1cn[nH]c(=O)c1C(F)(F)F showed an inhibition [2] of 75.5%.

C[C@@H](CN1CCC(C(=O)N2CCN(c3ncc(C(F)(F)F)cn3)CC2)C1)Nc1cn[nH]c(=O)c1C(F)(F)F (some centres undefined) gave an IC50 [3] of 1130 nM and an inhibition [2] of 44.9%.

C[C@@H](CN1CC(C(=O)N2CCN(c3cccc4c3oc3ccccc34)CC2)C1)Nc1cn[nH]c(=O)c1C(F)(F)F showed an inhibition [2] of 35%.

C[C@@H](CN1CC(C(=O)N2CCN(c3ccc4c(c3)OC(F)(F)O4)CC2)C1)Nc1cn[nH]c(=O)c1C(F)(F)F gave an IC50 [1] of 19.4 nM and an inhibition [2] of 90%.

Work on O=C(C1CN(CCNc2cn[nH]c(=O)c2C(F)(F)F)C1)N1CCN(c2ncc(C(F)(F)F)cn2)CC1 yielded an IC50 [1] of 39.3 nM and an inhibition [2] of 66.8%.

C[C@@H](CN1CC(C(=O)N2CCN(c3ncc(S(C)(=O)=O)cn3)CC2)C1)Nc1cn[nH]c(=O)c1C(F)(F)F gave an IC50 [1] of 29.2 nM and an inhibition [2] of 95%.

In the case of C[C@@H](CN1CC(C(=O)N2CCN(c3ncc(C#N)cn3)CC2)C1)Nc1cn[nH]c(=O)c1C(F)(F)F, the IC50 [1] is reported as 34.5 nM and the inhibition [2] is reported as 71.5%.

C[C@@H](CN1CC(C(=O)N2CCN(c3ccc(C(F)(F)F)cn3)CC2)C1)Nc1cn[nH]c(=O)c1C(F)(F)F gave an IC50 [1] of 14.5 nM and an inhibition [2] of 82%.

Compound C[C@@H](CN1CC(C(=O)N2CCN(c3ncc(-c4ccc(C(F)(F)F)cc4)cn3)CC2)C1)Nc1cn[nH]c(=O)c1C(F)(F)F has an inhibition [2] of 40%.

C[C@@H](CN1CC(C(=O)N2CCN(c3ncccn3)CC2)C1)Nc1cn[nH]c(=O)c1C(F)(F)F gave an inhibition [2] of 18%.

Compound O=C(C1CN(CC2(Nc3cn[nH]c(=O)c3C(F)(F)F)CC2)C1)N1CCN(c2ncc(C(F)(F)F)cn2)CC1 has an inhibition [2] of 39.6%.

In the case of Cc1cnc(N2CCN(C(=O)C3CN(C[C@H](C)Nc4cn[nH]c(=O)c4C(F)(F)F)C3)CC2)nc1, the IC50 [1] is reported as 42.4 nM and the inhibition [2] is reported as 51.4%.

In the case of C[C@@H](CN1CC(C(=O)N2CCN(c3ccc(C(F)(F)F)cc3)CC2)C1)Nc1cn[nH]c(=O)c1C(F)(F)F, the inhibition [2] is reported as 32%.

With C[C@@H](CN1CC(C(=O)N2CCN(c3ncc(Br)cn3)CC2)C1)Nc1cn[nH]c(=O)c1C(F)(F)F the IC50 [1] was 11.1 nM and the inhibition [2] was 85.5%.

In the case of CC1CN(c2ncc(C(F)(F)F)cn2)CC(C)N1C(=O)C1CN(C[C@H](C)Nc2cn[nH]c(=O)c2C(F)(F)F)C1 (some centres undefined), the IC50 [1] is reported as 110 nM and the inhibition [2] is reported as 77%.

COc1cnc(N2CCN(C(=O)C3CN(C[C@H](C)Nc4cn[nH]c(=O)c4C(F)(F)F)C3)CC2)nc1 gave an inhibition [2] of 56%.
